For 25 molecules, inhibition and IC50 results are on record in patent US8822449B2, “Substituted aminoindanes and analogs thereof, and the pharmaceutical use thereof” (Sanofi, priority 2008, dated 2014).

In this assay the target is T1, sodium-proton exchanger of subtype 3 (NHE3) (Homo sapiens, UniProt P48764).
T1 construct: expressed in transfected cells
T1 sequence (P48764 26-834): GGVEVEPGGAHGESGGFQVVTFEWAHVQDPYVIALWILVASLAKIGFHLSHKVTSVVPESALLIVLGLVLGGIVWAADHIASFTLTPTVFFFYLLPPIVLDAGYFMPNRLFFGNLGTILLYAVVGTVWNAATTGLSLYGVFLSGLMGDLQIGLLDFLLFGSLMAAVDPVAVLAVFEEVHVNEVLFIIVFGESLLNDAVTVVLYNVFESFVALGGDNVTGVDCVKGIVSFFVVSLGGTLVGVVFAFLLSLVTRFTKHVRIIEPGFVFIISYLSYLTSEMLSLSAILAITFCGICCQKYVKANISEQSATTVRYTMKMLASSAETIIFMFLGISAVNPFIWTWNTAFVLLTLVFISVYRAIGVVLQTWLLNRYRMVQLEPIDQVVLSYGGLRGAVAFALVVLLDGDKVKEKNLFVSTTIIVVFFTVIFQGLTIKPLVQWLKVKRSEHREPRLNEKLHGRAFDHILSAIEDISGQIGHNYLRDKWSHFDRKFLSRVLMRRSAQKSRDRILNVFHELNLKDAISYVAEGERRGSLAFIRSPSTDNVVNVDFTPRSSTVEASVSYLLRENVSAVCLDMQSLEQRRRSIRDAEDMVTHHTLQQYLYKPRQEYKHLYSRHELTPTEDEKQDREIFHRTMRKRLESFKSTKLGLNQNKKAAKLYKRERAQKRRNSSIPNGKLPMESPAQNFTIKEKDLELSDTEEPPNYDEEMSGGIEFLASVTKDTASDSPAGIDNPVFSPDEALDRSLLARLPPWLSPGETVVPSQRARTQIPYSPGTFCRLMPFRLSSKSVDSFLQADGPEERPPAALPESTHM
The experiment in a line: Recovery of intracellular pH (pHi) after acidification in LAP1 cells stably expressing NHE3 (BCECF fluorescence, FLIPR). In kind it is cell-based. Conditions: LAP1 cells stably expressing NHE3; pH recovery after acidification; range 1 is % inhibition at 10 μM; read-out: Activity range (inhibitory effect on NHE3).

Take `Cc1noc(C)c1-c1cc(F)ccc1O[C@H]1c2ccccc2C[C@@H]1N1CCCC1` [Example 503, 4-[5-fluoro-2-(trans-(1S,2S)-2-pyrrolidin-1-ylindan-1-yloxy)phenyl]-3,5-dimethylisoxazole]: the inhibition at 10 µM lay within 20 to 50%.
For `NC(=O)c1ccc(O[C@@H]2c3ccccc3C[C@H]2N2CCC[C@H](N)C2)cc1` (racemic) [Example 537, 4-[rac-trans-(1,2)-2-((S)-3-aminopiperidin-1-yl)indan-1-yloxy]benzamide], the IC50 is 1000 to 10000 nM.
As to `CN(C)C1Cc2ccccc2C1Oc1ccc(S(N)(=O)=O)c(Cl)c1Cl` (racemic) [Example 356, 2,3-dichloro-4-(rac-trans-(1,2)-2-dimethylaminoindan-1-yloxy)benzenesulfonamide], the IC50 is less than 1000 nM.
Same read-out and setting: for `COc1cccc(F)c1O[C@@H]1c2ccccc2C[C@H]1N1CCC(N)C1` (mixture of isomers) [Example 266, 1-[rac-trans-(1,2)-1-(2-fluoro-6-methoxyphenoxy)indan-2-yl]pyrrolidin-3-ylamine] the value was 1000 to 10000 nM.
For the molecule `CCN(CC)[C@@H]1Cc2ccccc2[C@H]1Oc1ccc2sc(C)nc2c1` (racemic) [Example 625, Diethyl-[rac-trans-(1,2)-1-(2-methylbenzothiazol-5-yloxy)indan-2-yl]amine], the IC50 was 1000 to 10000 nM.
With `CCc1ccc(O[C@@H]2c3ccccc3C[C@H]2N2CCC(N)C2)c(C(C)(C)C)c1` (mixture of isomers) [Example 267, 1-[rac-trans-(1,2)-1-(2-tert-butyl-4-ethylphenoxy)indan-2-yl]pyrrolidin-3-ylamine], the IC50 is 1000 to 10000 nM.
For `Cc1nnc(C)n1-c1ccc(O[C@H]2c3cc(Cl)ccc3C[C@@H]2N2CCOCC2)c(Cl)c1` [Example 566, 4-{trans-(1S,2S)-6-chloro-1-[2-chloro-4-(3,5-dimethyl-[1,2,4]triazol-4-yl)phenoxy]indan-2-yl}morpholine], the IC50 was less than 1000 nM.
Still for that read-out and setting: the figure for `CS(=O)(=O)c1ccc(O[C@@H]2c3ccccc3C[C@H]2NCC2CCC2)cc1` (racemic) [Example 717, Cyclobutylmethyl-[rac-trans-(1,2)-1-(4-methanesulfonyl-phenoxy)-indan-2-yl]-amine] is 1000 to 10000 nM.
`NS(=O)(=O)c1ccc(OC2c3ccccc3CC2N2CCCC2)cc1` (racemic) [Example 466, 4-(rac-trans-(1,2)-2-pyrrolidin-1-ylindan-1-yloxy)benzenesulfonamide]: the IC50 is less than 1000 nM.
On the same count and under the same terms, for `CS(=O)(=O)c1ccc(O[C@H]2c3cc(Cl)cc(Cl)c3C[C@@H]2N2CCNCC2)cc1` [Example 308, 1-[trans-(1S,2S)-4,6-dichloro-1-(4-methanesulfonylphenoxy)indan-2-yl]piperazine] the value was less than 1000 nM; for `NS(=O)(=O)c1ccc(O[C@H]2c3ccccc3C[C@@H]2CN2CCCC2)c(F)c1` (racemic) [Example 452, 3-fluoro-4-(2-pyrrolidin-1-ylmethylindan-1-yloxy)benzenesulfonamide], 1000 to 10000 nM.
Turning to `CO[C@@H]1CCN(C2Cc3ccccc3C2Oc2ccc(S(N)(=O)=O)c(Cl)c2Cl)C1` (mixture of isomers) [Example 359, 2,3-dichloro-4-[rac-trans-(1,2)-2-((R)-3-methoxypyrrolidin-1-yl)indan-1-yloxy]benzenesulfonamide], the IC50 fell in the range of 1000 to 10000 nM.
On to `Cc1nc2cc(O[C@@H]3c4ccccc4C[C@H]3N3C[C@H]4CNC[C@H]4C3)ccc2s1` (racemic) [Example 576, 5-[rac-trans-(1,2)-2-(hexahydropyrrolo[3,4-c]pyrrol-2-yl)indan-1-yloxy]-2-methylbenzothiazole], for which the IC50 lay in the range of 1000 to 10000 nM.
For `COc1cccc(CC#N)c1O[C@H]1c2ccccc2CC[C@@H]1N1CCOCC1` (racemic) [Example 213, [3-methoxy-2-(rac-trans-(1,2)-2-morpholin-4-yl-1,2,3,4-tetrahydronaphthalen-1-yloxy)phenyl]acetonitrile], the inhibition at 10 µM lay within 20 to 50%.
Turning to `NS(=O)(=O)c1ccc(O[C@H]2c3c(Cl)cccc3C[C@@H]2N2CCCC2)cc1` (racemic) [Example 476, 4-(rac-trans-(1,2)-7-chloro-2-pyrrolidin-1-ylindan-1-yloxy)benzenesulfonamide], the IC50 fell in the range of 1000 to 10000 nM.
Still for that read-out and setting: for `C[C@H]1CN([C@H]2Cc3c(Cl)cc(Cl)cc3[C@@H]2Oc2ccc(S(C)(=O)=O)cc2)CCN1` [Example 197, (S)-1-[trans-(1S,2S)-4,6-dichloro-1-(4-methanesulfonylphenoxy)indan-2-yl]-3-methylpiperazine] the value was less than 1000 nM.
Still for that read-out and setting: for `N#Cc1ccc(O[C@H]2c3ccccc3CC[C@@H]2N2CCC[C@@H](N)C2)cc1` (racemic) [Example 516, 4-[rac-trans-(1,2)-2-((R)-3-aminopiperidin-1-yl)-1,2,3,4-tetrahydronaphthalen-1-yloxy]benzonitrile] the value was less than 1000 nM.
Same read-out and setting: for `Cc1cn(-c2ccc(O[C@H]3c4cc(Cl)cc(F)c4C[C@@H]3N3CC[C@@H](O)C3)cc2)c(C(C)C)n1` [Example 720, (R)-1-{trans-(1S,2S)-6-Chloro-4-fluoro-1-[4-(2-isopropyl-4-methyl-imidazol-1-yl)-phenoxy]-indan-2-yl}-pyrrolidin-3-ol] the value was 1000 to 10000 nM; for `Cc1nnc(C)n1-c1ccc(O[C@H]2c3cc(Cl)cc(Cl)c3C[C@@H]2N2CCCN(C)CC2)cc1` [Example 349, 1-{trans-(1S,2S)-4,6-dichloro-1-[4-(3,5-dimethyl-[1,2,4]triazol-4-yl)phenoxy]indan-2-yl}-4-methyl-[1,4]diazepane], less than 1000 nM.
For the molecule `CCCC1(N)CCCN([C@H]2Cc3c(Cl)cc(Cl)cc3[C@@H]2Oc2cccc(NC(C)=O)c2)C1` (mixture of isomers) [Example 693, N-{3-[trans-(1S,2S)-2-(3-amino-3-propylpiperidin-1-yl)-4,6-dichloroindan-1-yloxy]phenyl}acetamide], the IC50 was less than 1000 nM.
On to `Cn1ccn(-c2cc(O[C@H]3c4cc(Cl)cc(Cl)c4C[C@@H]3N3CC[C@@H](O)C3)ccc2Cl)c1=O` [Example 310, 1-{2-chloro-5-[(1S,2S)-4,6-dichloro-2-((R)-3-hydroxypyrrolidin-1-yl)indan-1-yloxy]phenyl}-3-methyl-1,3-dihydroimidazol-2-one], for which the inhibition at 10 µM was in the range of 20 to 50%.
In the case of `CC(=O)Nc1cccc(O[C@H]2c3cc(Cl)cc(F)c3C[C@@H]2N2CCNCC2)c1` (racemic) [Example 659, N-[3-(rac-trans-(1,2)-6-chloro-4-fluoro-2-piperazin-1-ylindan-1-yloxy)phenyl]acetamide], the IC50 is less than 1000 nM.
For the molecule `N[C@H]1CCCN([C@H]2CCc3ccccc3[C@@H]2Oc2ccc(C(F)(F)F)cc2)C1` (racemic) [Example 186, (S)-1-[rac-trans-(1,2)-1-(4-trifluoromethylphenoxy)-1,2,3,4-tetrahydronaphthalen-2-yl]piperidin-3-ylamine], the inhibition at 10 µM was 20 to 50%.
Still for that read-out and setting: the figure for `N[C@@H]1CCCN([C@H]2CCc3ccccc3[C@@H]2Oc2ccc3oc(=O)sc3c2)C1` (racemic) [Example 578, 5-[rac-trans-(1,2)-2-((R)-3-aminopiperidin-1-yl)-1,2,3,4-tetrahydronaphthalen-1-yloxy]benzo[1,3]oxathiol-2-one] is 20 to 50%.
Turning to `NS(=O)(=O)c1cc(Cl)c(O[C@H]2c3ccccc3C[C@@H]2N2CCCC2)c(Cl)c1` (racemic) [Example 402, 3,5-dichloro-4-(rac-trans-(1,2)-2-pyrrolidin-1-ylindan-1-yloxy)benzenesulfonamide], the IC50 was 1000 to 10000 nM.
